Results published in PubChem BioAssay AID623931 (Vanderbilt Specialized Chemistry Center, 2012).

Experiments:
[1] = PubChem AID 623931; settings: Ricerca radioligand binding panel, % inhibition, at 10 µM, stronger effect = higher value
[2] = molecular target: 5-hydroxytryptamine receptor 2B (Homo sapiens) (UniProt P41595); test: PubChem AID 623931; settings: Ricerca radioligand binding panel, % inhibition; at 10 µM; stronger effect = higher value

COc1ccc(C#Cc2ccc(C(=O)N3CCC[C@@H](CO)C3)cc2)cc1
inhibition ([1]; GABA-A muscimol site binding): 21%
inhibition ([1]; K-ATP channel binding): 21%
inhibition ([1]; adenosine A3 receptor binding): 44%
inhibition ([1]; dopamine D3 receptor binding): 19%
inhibition ([1]; dopamine transporter DAT binding): 88%
inhibition ([1]; hERG potassium channel binding): 13%
inhibition ([1]; imidazoline I2 binding): 35%
inhibition ([1]; norepinephrine transporter NET binding): 28%
inhibition ([1]; prostanoid EP4 receptor binding): 45%
inhibition ([1]; purinergic P2Y binding): 23%
inhibition ([1]; serotonin transporter SERT binding): 50%
inhibition ([1]; sigma 1 receptor binding): 37%
inhibition [2]: 71%
